Measured values reported in patent US20060199206A1, “Method for identifying skin care composition-resistant skin-binding peptides” (priority 2005, published 2006).

Assays:
[1] = Phage ELISA for skin binding affinity (Example 14); set-up: species or system pig; conditions: 1×10^11 pfu of phage, 37° C. 15 min, TBST-0.5% washes; anti-M13 HRP conjugate; mean of at least three replicates
Procedure: (§1) Phage-peptide clones identified in Examples 11-13 were amplified by infecting fresh host cells (E. coli ER2338). The pigskin-bottom 96-well apparatus system described in Examples 11-13 was used for the ELISA procedure. For each clone to be tested, the pigskin well was incubated for 1 h at room temperature with 400 μL of blocking buffer, consisting of 2% non-fat dry milk (Schleicher & Schuell, Inc.) in TBS. The blocking buffer was removed by inverting the systems and blotting them dry with paper towels. The systems were rinsed 6 times with wash buffer consisting of TBST-0.05%. The wells were filled with 100 μL of TBST-0.5% containing 1 mg/mL of BSA and 1×10^11 pfu of phage. The samples were incubated at 37° C. for 15 min with slow shaking. The non-binding phage was removed by washing the wells 10 to 20 times with TBST-0.5%. Then, 100 μL of horseradish peroxidase/anti-M13 antibody conjugate (Amersham USA, Piscataway, N.J.), diluted 1:500 in the blocking buffer, was added to each well and incubated for 1 h at room temperature. The conjugate solution was removed and the wells were washed 6 times with TBST-0.05%. TMB substrate (200 μL), obtained from Pierce Biotechnology (Rockford, Ill.) was added to each well and the color was allowed to develop for between 5 to 30 min, typically for 10 min, at room temperature. Then, stop solution (200 μL of 2 M H2SO4) was added to each well and the solution was transferred to a 96-well plate and the absorbance at 450 nm (A450) was measured using a microplate spectrophotometer (Molecular Devices, Sunnyvale, Calif.). The resulting absorbance values, reported as the mean of at least three replicates, and the standard error of the mean (SEM) are given in Table 2.

[2] = Phage ELISA for skin binding affinity after body wash treatment (Example 15); set-up: species or system pig; conditions: mean of at least three replicates; for Body Wash A450 ± SEM: 200 μL Johnson's Head-to-Toe Baby Wash for 30 min after phage binding; for Buffer Wash A450 ± SEM: procedure of Example 14
Procedure: as §1
The ELISA procedure described in Example 14 was used with the following modification. After removal of the non-binding phage peptide solution from the wells, 200 μL of Johnson's Head-to-Toe Baby Wash was added to the wells and was incubated for 30 min. The washes and color development steps described in Example 14 were followed. For the buffer wash samples, the same procedure described in Example 14 was used. […] The resulting absorbance values, reported as the mean of at least three replicates, and the standard error of the mean are given in Table 3.

[3] = stated as known; cited from earlier work

Substance | A450 ± SEM [1] | Body Wash A450 ± SEM [2] | Buffer Wash A450 ± SEM [2] | binding affinity for skin [3]
SVSVGMKPSPRP (Body wash-resistant skin-binding peptide) [Skin-12mer-2] | 0.818 ± 0.108 |  |  | 
SPYPSWSTPAGR (Body wash-resistant skin-binding peptide) [Skin-12mer-9] | 1.146 ± 0.131 | 2.265 ± 0.132 | 1.298 ± 0.11 | 
DWCDTIIPGRTCHG (Body wash-resistant skin-binding peptide) [Skin-cys-6] | 1.657 ± 0.047 |  |  | 
VQPITNTRYEGG (Body wash-resistant skin-binding peptide) [Skin-12mer-10] | 0.418 ± 0.036 |  |  | 
NQAASITKRVPY (Body wash-resistant skin-binding peptide) [Skin-12mer-5] | 0.391 ± 0.036 |  |  | 
SPLTVPYERKLL (Body wash-resistant skin-binding peptide) [Skin-12mer-8] | 0.433 ± 0.05 |  |  | 
DACSGNGHPNNCDR (Body wash-resistant skin-binding peptide) [Skin-cys-4] | 0.852 ± 0.033 |  |  | 
QLSYHAYPQANHHAP (Body wash-resistant skin-binding peptide) [Skin-15mer-1] | 1.264 ± 0.166 | 1.447 ± 0.178 | 1.031 ± 0.045 | 
SGCHLVYDNGFCDH (Body wash-resistant skin-binding peptide) [Skin-cys-1] | 1.385 ± 0.046 | 1.444 ± 0.293 | 1.182 ± 0.070 | 
NLCDSARDSPRCKV (Body wash-resistant skin-binding peptide) [Skin-cys-3] | 0.927 ± 0.044 |  |  | 
ASCPSASHADPCAH (Body wash-resistant skin-binding peptide) [Skin-cys-2] | 1.184 ± 0.044 |  |  | 
D21: hair-binding phage peptide used as control in Example 15, known low binding affinity for skin (RTNAADHPAAVT; Hair-binding sequence) [Clone D21, reference compound] |  | 0.549 ± 0.053 | 0.297 ± 0.004 | low binding affinity for skin
GSSTVGRPSLYE (Body wash-resistant skin-binding peptide) [Skin-12mer-6] | 0.677 ± 0.104 |  |  | 
TMGFTAPRFPHY (Body wash-resistant skin-binding peptide) [Skin-12mer-1] | 0.506 ± 0.097 |  |  | 
SDTISRLHVSMT (Body wash-resistant skin-binding peptide) [Skin-12mer-7] | 1.134 ± 0.093 |  |  | 
IB5: hair-binding phage peptide (Huang et al.) used as control, known low binding affinity for skin (TPPELLHGDPRS; Hair-binding peptide) |  | 0.453 ± 0.035 | 0.202 ± 0.010 | low binding affinity for skin
WPMHPEKGSRWS (Body wash-resistant skin-binding peptide) [Skin-12mer-11] | 0.81 ± 0.038 |  |  | 
NHSNWKTAADFL (Body wash-resistant skin-binding peptide) [Skin-12mer-4] | 0.874 ± 0.039 |  |  | 
